# Results published in patent publication US8048875B1, “Topical pharmaceutical composition comprising a cholinergic agent or a calcium channel blocker” (S.L.A. Pharma AG, priority 1997, dated 2011).
# Like-named read-outs stand apart in the source and are kept apart here.
# Tests used:
# [1] = Dose ranging study of bethanechol cream in healthy volunteers, anal manometry; type: in vivo, human; conditions: higher concentrations produced no additional effect
# Text: Bethanechol cream at concentrations of 0.05%, 0.1%, 0.5% and 1% w/w bethanechol were made up in accordance with Example 1. The compositions were studied following initial experimentation in an open way to determine a clinically effective dose range. […] Maximal effect was produced by application of 0.1% bethanechol and higher concentrations of the cream produced no additional effect. At 0.1% w/w bethanechol, the mean resting pressure was reduced from about 110 cm to about 85 cm H2O (about 25% decrease). A typical ‘one inch’ application of this cream from the tube is equivalent to 400 mcg of bethanechol.
# [2] = higher concentrations did not produce an additional effect
# [3] = Study of Example 4 repeated using oral diltiazem
# [4] = topical use; cited from earlier work
# [5] = after 1 hour, patients with anal fissures; cited from earlier work
structure (smiles),measurement,setting,value
CC(C[N+](C)(C)C)OC(N)=O (stereo not shown) [bethanechol],concentration producing the maximal effect on resting anal pressure,[1],0.1 % w/w
COc1ccc([C@@H]2Sc3ccccc3N(CCN(C)C)C(=O)[C@@H]2OC(C)=O)cc1 [diltiazem],concentration producing the maximal effect on resting anal pressure,[2],about 2 % w/w
same,effect on mean anal resting pressure,[3]; 60 mg oral once a day,no notable effect
same,patients who noticed postural dizziness,[3]; 60 mg oral twice a day,two
same,mean anal resting pressure reduced by,"[3]; 60 mg oral twice a day, P=0.008",17%
O=[N+]([O-])OCC(CO[N+](=O)[O-])O[N+](=O)[O-] [glyceryl trinitrate],effect on internal anal resting pressure,[4],reduces the internal anal resting pressure
O=C(NC1CCN(CCc2c[nH]c3ccccc23)CC1)c1ccccc1 [indoramin],reduction of maximum resting pressures in the anal canal,[5],35.8%
